Three substances from EP2362225 (dated 2011) can be followed below.

“Also recorded” adds a separate entry of the source.

In data set [1] the test system is LcL 20S proteasomes. The data set is described as follows: 3 µg LcL 20S proteasomes in 100 µl buffer; gp10040-52 and its heavy analogue digested together. Particulars: human, up to 36 hours.
Data set [2] has as its system 20S proteasomes of Lymphoblastoid cell Lines (LcL). The data set is described as follows: LcL 20S proteasomes in Hepes buffer (Hepes 20 mM, KCI 1 mM, MgCl 0.5 mM, DTT 1 mM, NaN3 1 mM, pH 7.3). Particulars: human, 37°C, up to 48 hours.
Data set [3] has as its system 20S proteasomes of T2 cells (standard proteasome). The data set is described as follows: T2 20S proteasomes (standard proteasome) in Hepes buffer. As to conditions: human, 37°C, up to 48 hours.
For data set [4], the system named is proteasome.
For data set [5], the system named is T2.27 20S proteasomes (immunoproteasomes). Put plainly: 20S proteasomes purified from T2.27 cells in Hepes buffer. As to conditions: human T2 cells transfected with murine LMP2 and LMP7, 37°C, up to 48 hours.
The test system of data set [6] is 20S proteasomes of T2.27 cells (immunoproteasomes). The data set is described as follows: T2.27 20S proteasomes (immunoproteasomes) in Hepes buffer. As to conditions: human T2 cells transfected with murine LMP2 and LMP7 subunits, 37°C, up to 48 hours.
Data set [7] concerns T2 20S proteasomes (standard proteasome). The data set is described as follows: 20S proteasomes purified from T2 cells in Hepes buffer. Particulars: human, 37°C, up to 48 hours.

In the case of RTKAWNRQLYPEW, the fragment found entry was “gp10040-042/47-52-α; also recorded: gp10047-52/40-42-α” in data set [1]; “gp10040-42/47-52 [RTK][QLYPEW]; also recorded: gp10047-52/40-42 [QLYPEW][RTK]” in data set [2]; “[RTK][QLYPEW]; also recorded: [QLYPEW][RTK]” in data set [3]; “gp10040-42/47-52 [RTK][QLYPEW]” in data set [4]; “gp10040-42/47-52 [RTK][QLYPEW]; also recorded: gp10047-52/40-42 [QLYPEW][RTK]” in data set [5]; “[RTK][QLYPEW]; also recorded: [QLYPEW][RTK]” in data set [6]. Further, in data set [7], the fragment found entry was “gp10047-52/40-42 [QLYPEW][RTK]”.
In the case of RTK^+6AWNRQL^+1YPEW, the fragment found entry in data set [1] was “gp10040-42/47-52-δ; also recorded: gp10047-52/40-42-δ”.
Take VSRQLRTKAWNRQLYPEWTEAQR: the fragment found result in data set [3] and in data set [6] was “[VSRQL][VSRQL] (gp10035-39/35-39); also recorded: [QLYPEWTEA][VSRQL] (gp10047-55/35-39)” throughout.
